Laboratory results: patent EP0974573A1, “PHENYLPROPENONE COMPOUNDS AND MEDICINES CONTAINING THE SAME” (Kabushiki Kaisha Yakult Honsha, priority 1997, dated 1998)

Experiments:
[1] = system: rat-derived ACAT; test: Inhibitory effects on rat-derived ACAT (Test 1); type: biochemical; conditions: crude enzyme from microsome protein fractions of rat liver, (14C)-oleoyl-CoA substrate, 37°C
Protocol: To test effects on ACAT, a reaction was conducted in vitro to form (^14C)-cholesteryl oleate from endogeneous cholesterol in the presence of (^14C)-oleoyl-CoA as a substrate by using a crude enzyme prepared from microzome protein fractions of a rat liver.
The reaction mixture had the following composition: 20 µℓ of microsome protein (1.83 mg/mℓ), 20 µℓ of (^14C)-oleoyl-CoA (5 µCi/mℓ, BSA: 96 nmol/mℓ), 106 µℓ of 100 mM phosphate buffer (containing 5 mM of dithiothreitol, pH 7.4) and a sample dissolved in 4 µℓ of methanol or dimethyl sulfoxide; 150 µℓ in total.
The reaction was conducted at 37°C. After an elapse of a predetermined reaction time (18 minutes in general), a 2:1 mixture of chloroform and methanol (5.65 mℓ) was added to terminate the reaction. A 0.04 N aquous solution of hydrochloric acid (0.98 mℓ) and as a carrier, cholesteryl oleate were added, followed by extraction for 20 minutes on a shaking apparatus. The mixture was then allowed to stand overnight in a cold dark place. On the following day, the separated lower chloroform layer was extracted in its entirety and was dried under a nitrogen gas stream. The remaining upper layer was added with the lower layer (5.65 mℓ) of the Folch's partition solution, and was extracted again. After the mixture was allowed to stand overnight in a dark place, the lower layer was drawn in its entirety. This lower layer was combined with the lower chloroform layer fraction, which had already been dried to solid, and the mixture was then dried to solid.
The solid was then dissolved in chlorofrom (200 µℓ), and the solution was coated in its entirety on a G60 plate (aluminum sheet) for silica gel thin layer chromatography. After the solid was developedover 10 cm with a 10:190 mixture of diethyl ether and petroleum ether, autoradiography was conducted and the formation of (^14C)-colesteryl oleate was confirmed. This section was then cut off. The radioactivity of each sample was measured by subjecting it to liquid scintillation counting for 5 minutes in toluene or was measured for 30 minutes by a "Betascope" (manufactured by BETA-GEN INC. The results so obtained are shown in Table 1. Table 1

[2] = system: SD rats; test: Provisional toxicity test of Compound 6; type: in vivo, rat; conditions: female SD rats, oral by stomach tube in 1.5% CMC, 14 days or 28 days, 100, 250 or 250 mg/kg/day
Protocol: Concerning Compound 6, a provisional toxicity test was conducted.
Using female SD rats (5-weeks old), the test was conducted at a size of 6 rats per group. The animals were subjected to group feeding, and were allowed to take both "F-2 Feed" (product of FUNABASHI FARM CO., LTD.) and tap water ad libitum.
Compound 6 which had been suspended in a 1.5% aqueous solution of CMC was continuously and orally administered by a stomach tube for 14 days or 28 days such that the dosage became 100, 250 or 250 mg/kg/day. To a control group, on the other hand, an aqueous solution of CMC was administered.
Therefore, safety has been confirmed.

[3] = system: SD rats; test: Plasma cholesterol elevation inhibitory effects on rats loaded with high cholesterol diet, feed-mixed administration (Test 3); type: in vivo, rat; conditions: 0.005% of compound added to hyperlipemia inducing diet, ad libitum 3 days
Description: Using 5-week old male SD rats (120-150 g, 10 rats per group, individual feeding), plasma cholesterol elevation inhibitory effects of various compounds in the Examples on rats were studied. To a control group, a feed which had been prepared by adding 1.5% of cholesterol, 0.5% of cholic acid, 10% of coconut oil and 10% of sugar to "F-2 Diet" (product of FUNABASHI FARM CO., LTD.) was given ad libitum as a hyperlipemia inducing diet.
To each test-compound-administered group, on the other hand, a feed which had been prepared by adding 0.005% of the corresponding compound in the Examples to the hyperlipemia inducing diet of the above-described composition was given ad libitum. Further, a normal diet group to which a feed similar to the hyperlipemia inducing diet except for the exclusion of cholesterol was also tested similarly. As a testing method, after these feeds were given ad libitum for 3 days, bloods were drawn on the 4th day from the abdominal aortas of the individual rats under anesthesia with Nembutal. Subsequent to collection of plasma from each blood sample, the plasma cholesterol was quantitated by a "DETERMINER TC555 KIT" (product of Kyowa Medex Co., Ltd.) while the HDL cholesterol was quantitated by "DETERMINER HDL KIT" (product of Kyowa Medex Co., Ltd.). The liver cholesterol was measured by extracting it in accordance with the Folch's method and then measuring it with a "DETERMINER TC555 KIT". Statistical processing of the data so obtained was conducted by the Danett's test.

[4] = system: SD rats; test: Plasma cholesterol elevation inhibitory effects of Compound 6 on rats, oral suspension in carboxymethylcellulose (Test 10); type: in vivo, rat; conditions: 7 days; for HDLC: plasma HDL cholesterol; for PL: plasma phospholipid; for TC: plasma total cholesterol; for TG: plasma triglyceride
Description: Using 5-week old male SD rats (120-150 g, 8 rats per group, group feeding), plasma cholesterol elevation inhibitory effects of compound 6 in Examples on rats were studied.
To rats in a control group, only a 1.5% aqueous solution of carboxymethylcellulose was orally administered once a day for 7 days. During the last 3 days, a hyperlipemia inducing diet [a feed prepared by adding 1.5% of cholesterol, 0.5% of cholic acid, 10% of coconut oil and 10% of sugar to "F-2 Diet" (product of FUNABASHI FARM CO., LTD.)] was given ad libitum. To rats in a control group (normal diet), however, a feed (normal diet) similar to the hyperlipemia inducing diet except for the exclusion of cholesterol was given ad libitum.
To test-compound-administered groups, on the other hand, compound 6 suspended in a 1.5% aqueous solution of carboxymethylcellulose was continuously and orally administered at dosages of 5, 10 and 20 mg/kg/day, respectively, once a day for 7 days. During the last 3 days, a hyperlipemia inducing diet [a feed prepared by adding 1.5% of cholesterol, 0.5% of cholic acid, 10% of coconut oil and 10% of sugar to "F-2 Diet" (product of FUNABASHI FARM CO., LTD.)] was given ad libitum.
On the 4th day after the initiation of feeding of the hyperlipemia inducing diet and the normal diet, bloods were drawn from the abdominal aortas of the individual rats under anesthesia with Nembutal. Subsequent to collection of plasma from each blood sample, the plasma cholesterol was quantitated by an "AUTOSERA S-CHO KIT" (product of Daiichi Pure Chemicals Co., Ltd.), the plasma triglyceride was guantitated by an "AUTOSERA TG-N KIT" (product of Daiichi Pure Chemicals Co., Ltd.), and the plasma phospholipid was quantitated by an "AUTOSERA PL KIT" (product of Daiichi Pure Chemicals Co., Ltd.). Further, the HDL cholesterol was quantitated by an "AUTOSERA S-CHO KIT" (product of Daiichi Pure Chemicals Co., Ltd.) after fractionating it by a "DETERMINER HDL KIT" (product of Kyowa Medex Co., Ltd.). The liver lipid level was quantitated by a commercial measuring kit in a similar manner as in the measurement of plasma lipid subsequent to its extraction by the Folch's method. Statistical processing of the data so obtained was conducted by the Dunnet's test.

[5] = 5 mg/kg oral in carboxymethylcellulose
[6] = 10 mg/kg oral in carboxymethylcellulose
[7] = 20 mg/kg oral in carboxymethylcellulose

CCCCCCCCOc1c(OC)cc(/C=C/C(=O)NN2CCN(c3ccc(C)c(C)c3)CC2)cc1OC [Compound 6, N-[4-(3,4-dimethylphenyl)-1,4-diazacyclohexyl]-(2E)-3-(3,5-dimethoxy-4-octyloxyphenyl)-2-propenamide]
IC50 [1]: 11 nM | difference between administered groups and control group in external appearance and results of various biochemical tests [2]: no difference was observed | Inhibitory rate (%) of plasma total cholesterol elevation in rat [3]: 79% | Inhibitory rate (%) of plasma total cholesterol elevation ([4]; 5 mg/kg/day oral in 1.5% carboxymethylcellulose): 34% | Inhibitory rate (%) of plasma total cholesterol elevation ([4]; 10 mg/kg/day oral in 1.5% carboxymethylcellulose): 57% | Inhibitory rate (%) of plasma total cholesterol elevation ([4]; 20 mg/kg/day oral in 1.5% carboxymethylcellulose): 66% | HDLC [4, 5]: 19.3 ± 4.5 mg/dL | HDLC [4, 6]: 20.5 ± 4.0 mg/dL | HDLC [4, 7]: 22.8 ± 2.2 mg/dL | PL [4, 5]: 243.2 ± 42.5 mg/dL | PL [4, 6]: 206.7 ± 50.6 mg/dL | PL [4, 7]: 203.6 ± 21.3 mg/dL | TC [4, 5]: 303.1 ± 99.4 mg/dL | TC [4, 6]: 226.6 ± 94.7 mg/dL | TC [4, 7]: 196.8 ± 44.1 mg/dL | TG [4, 5]: 202.3 ± 99.7 mg/dL | TG [4, 6]: 159.0 ± 68.6 mg/dL | TG [4, 7]: 187.6 ± 79.3 mg/dL
